Data set [1] concerns Mycosphaerella graminicola; anamorph: Septoria tritici. In words: Fungicidal activity: leaf blotch of wheat (SEPTTR), wheat seedlings. The format is in vivo. As to conditions: Zymoseptoria tritici, 100 ppm, wheat. In outline:
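Percent control derives from disease severity on treated versus untreated first leaves, rated 0–100% when symptoms were fully expressed on untreated plants. Yuma seedlings were inoculated with S. tritici spores either before or after spraying to run-off. The spray was acetone solution diluted 1:9 in water with 110 ppm Triton X-100. Infection took place in 100% RH dew chambers, then a 20 °C greenhouse.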

Another data set deals with Venturia inaequalis. In words: Fungicidal activity: apple scab (VENTIN). The format is in vivo. As to conditions: 24 h, 1 Day Protectant, read-out: Disease Control VENTIN 1 DP. Here is the method: Technical grades of materials were dissolved in acetone, which were then mixed with nine volumes of water containing 110 ppm Triton X-100. The fungicide solutions were applied onto wheat seedlings using an automated booth sprayer to run-off. All sprayed plants were allowed to air dry prior to further handling. Wheat plants (variety Yuma) were grown from seed in a greenhouse in 50% mineral soil/50% soil-less Metro mix until the first leaf was fully emerged, with 7-10 seedlings per pot. These plants were inoculated with an aqueous spore suspension of Septoria tritici either prior to or after fungicide treatments. After inoculation the plants were kept in 100% relative humidity (one day in a dark dew chamber followed by two to three days in a lighted dew chamber at 20° C.) to permit spores to germinate and infect the leaf. The plants were then transferred to a greenhouse set at 20° C. for disease to develop. When disease symptoms were fully expressed on the 1st leaves of untreated plants, infection levels were assessed on a scale of 0 to 100 percent disease severity. Percent disease control was calculated using the ratio of disease severity on treated plants relative to untreated plants. Evaluation of Fungicidal Activity: Apple Scab (Venturia inaequalis; Bayer Code […]) Apple seedlings (variety McIntosh) were grown in soil-less Metro mix, with one plant per pot. Seedlings with two expanding young leaves at the top (older leaves at bottom of the plants were trimmed) were used in the test. Plants were inoculated with a spore suspension of Venturia inaequalis 24 hr after fungicide treatment and kept in a 22° C. dew chamber with 100% RH for 48 hr, and then moved to a greenhouse set at 20° C. for disease to develop. Fungicide formulation, application and disease assessment on the sprayed leaves followed the procedures as described in the Example A.

Data set [2] has as its system Puccinia triticina; synonym: Puccinia recondita f. sp. tritici. Put plainly: Fungicidal activity: wheat brown rust (PUCCRT), wheat seedlings. The format is in vivo. As to conditions: 100 ppm, wheat. In outline: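 Wheat (Yuma) seedlings at first-leaf stage, inoculated with Puccinia triticina spores before or after treatment, held overnight in dark dew room at 22° C, 100% RH, then greenhouse at 24° C. Acetone solutions diluted with nine volumes water containing 110 ppm Triton X-100, sprayed to run-off. Percent disease control derived from severity (0–100%) relative to untreated plants.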

For a further data set, the system named is Uncinula necator. In words: Fungicidal activity: grape powdery mildew (UNCINE). The format is in vivo. As to conditions: Erysiphe necator, 24 h, 1 Day Protectant, read-out: Disease Control UNCINE 1 DP. Here is the method:
Technical grades of materials were dissolved in acetone, which were then mixed with nine volumes of water containing 110 ppm Triton X-100. The fungicide solutions were applied onto wheat seedlings using an automated booth sprayer to run-off. All sprayed plants were allowed to air dry prior to further handling. Wheat plants (variety Yuma) were grown from seed in a greenhouse in 50% mineral soil/50% soil-less Metro mix until the first leaf was fully emerged, with 7-10 seedlings per pot. These plants were inoculated with an aqueous spore suspension of Septoria tritici either prior to or after fungicide treatments. After inoculation the plants were kept in 100% relative humidity (one day in a dark dew chamber followed by two to three days in a lighted dew chamber at 20° C.) to permit spores to germinate and infect the leaf. The plants were then transferred to a greenhouse set at 20° C. for disease to develop. When disease symptoms were fully expressed on the 1st leaves of untreated plants, infection levels were assessed on a scale of 0 to 100 percent disease severity. Percent disease control was calculated using the ratio of disease severity on treated plants relative to untreated plants. Evaluation of Fungicidal Activity: Grape Powdery Mildew (Uncinula necator; Bayer Code […]) Grape seedlings (variety Carignane) were grown in soil-less Metro mix, with one plant per pot, and used in the test when approximately one month old. Plants were inoculated 24 hr after fungicide treatment by shaking spores from infected leaves over test plants. Plants were maintained in a greenhouse set at 20° C. until disease was fully developed. Fungicide formulation, application and disease assessment on the sprayed leaves followed the procedures as described in the Example A.

Data set [3] relates to Puccinia triticina; synonym: Puccinia recondita f. sp. tritici. In words: Fungicide mobility (dropline mobility test): wheat brown rust (PUCCRT). The format is in vivo. The conditions noted are these: 1 ug/leaf. In outline: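 A 2 μl drop of formulated compound (EC blank, 110 ppm Triton X-100 water) was applied to a line 5 cm from the tip of primary leaves of "Yuma" wheat seedlings, 6 replicates. Inoculation with PUCCRT was done 1 day after or 3 days before application. Once disease was fully expressed on controls, the acropetal disease-free zone was measured as percent of line-to-tip distance.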

The test system of data set [4] is Magnaporthe grisea; anamorph: Pyricularia oryzae. In words: whole plant or invertebrate. The format is in vivo. The conditions noted are these: 24 h, read-out: Disease Control PYRIOR 1 DP.
Setting [5] is: 24 h, 1 Day Protectant, read-out: Disease Control SEPTTR 1DP.
Setting [6] is: 72 h, 3 Day Curative, read-out: Disease Control SEPTTR 3DC.
[7] abbreviates: 24 h, 1 Day Protectant, read-out: Disease Control PUCCRT 1DP.
Setting [8] is: 72 h, 3 Day Curative, read-out: Disease Control PUCCRT 3DC.
Setting [9] is: 24 h, 1 Day Protectant Mobility, read-out: Dropline Mobility Test PUCCRT 1DPM.
The mark [10] stands for this setting: 72 h, 3 Day Curative Mobility, read-out: Dropline Mobility Test PUCCRT 3DCM.

Molecules are shown by their SMILES. Read-outs that look alike come from different tables or passages of the source.

Consider `CCCCO[C@H]1COC[C@H](NC(=O)c2nccc(OC)c2OCOC(C)=O)C(=O)O[C@@H](C)[C@@H]1OCCC` [Compound 45], for which the pest or weed control at 100 ppm was 80 to 100% in data set [1] (setting [5]); 80 to 100% in data set [1] (setting [6]); 0 to 80% in the data set on Venturia inaequalis; 80 to 100% in data set [2] (setting [7]); 80 to 100% in data set [2] (setting [8]); 80 to 100% with Uncinula necator.

As to `CCCCO[C@H]1[C@H](C)OC(=O)[C@@H](NC(=O)c2nccc(OC)c2OCOC(C)=O)COC[C@@H]1OCc1ccccc1` [Compound 34], the pest or weed control at 100 ppm (in data set [1] (setting [5]); in data set [1] (setting [6]); in the data set on Venturia inaequalis; in data set [2] (setting [7]); in data set [2] (setting [8]); with Uncinula necator) was 80 to 100% throughout. Moreover, the pest or weed control at 1 µg/leaf was in the range of 0 to 80% in data set [3] (setting [9]) and 80 to 100% in data set [3] (setting [10]).

Consider `CCCCO[C@H]1COC[C@H](NC(=O)c2nccc(OC)c2OCOC(C)=O)C(=O)O[C@@H](C)[C@@H]1OC(=O)C(C)C` [Compound 47], for which the pest or weed control at 100 ppm in data set [1] (setting [5]) was in the range of 80 to 100%; in data set [1] (setting [6]) it was 80 to 100%; in the data set on Venturia inaequalis, 80 to 100%; in data set [2] (setting [7]), 80 to 100%; in data set [2] (setting [8]) it was 80 to 100%; with Uncinula necator, 0 to 80%. Moreover, the pest or weed control at 100 ppm in data set [4] was 80 to 100%.

As for `CCCCO[C@H]1COC[C@H](NC(=O)c2nccc(OC)c2OCOC(C)=O)C(=O)O[C@@H](C)[C@@H]1OCc1ccccc1` [Compound 35], the pest or weed control at 100 ppm was 80 to 100% in data set [1] (setting [5]); 80 to 100% in data set [1] (setting [6]); 0 to 80% in the data set on Venturia inaequalis; 80 to 100% in data set [2] (setting [7]); 80 to 100% in data set [2] (setting [8]); 0 to 80% with Uncinula necator.

As to `COc1ccnc(C(=O)N[C@H]2COC[C@H](OCC(C)C)[C@@H](OCC(C)C)[C@H](C)OC2=O)c1O` [Compound 1, N-((3S,7S,8S,9S)-7,8-diisobutoxy-9-methyl-2-oxo-1,5-dioxonan-3-yl)-3-hydroxy-4-methoxypicolinamide], the melting point (in general, the temperature of the solid-liquid transition) lay within 111 to 113 °C. Also, the pest or weed control at 100 ppm in data set [1] (setting [5]) fell in the range of 80 to 100%. In addition, the pest or weed control at 100 ppm in data set [1] (setting [6]) was 80 to 100%. In addition, the pest or weed control at 100 ppm in data set [2] (setting [7]) lay in the range of 80 to 100%. Further, in data set [2] (setting [8]), the pest or weed control at 100 ppm was 80 to 100%. For the same compound, the pest or weed control at 1 µg/leaf in data set [3] (setting [9]) was 80 to 100%. Besides, in data set [3] (setting [10]), the pest or weed control at 1 µg/leaf is 80 to 100%.

`COc1ccnc(C(=O)N[C@H]2COC[C@H](Oc3ccccc3)[C@@H](OCC(C)C)[C@H](C)OC2=O)c1O` [Compound 83] came in with a melting point of 112 to 113 °C. For the same compound, the pest or weed control at 100 ppm in data set [1] (setting [5]) was in the range of 80 to 100%. Besides, the pest or weed control at 100 ppm in data set [1] (setting [6]) lay within 80 to 100%. Moreover, the pest or weed control at 100 ppm in data set [2] (setting [7]) fell in the range of 80 to 100%. The pest or weed control at 100 ppm in data set [2] (setting [8]) lay within 80 to 100%. Moreover, in data set [3] (setting [9]), the pest or weed control at 1 µg/leaf was in the range of 80 to 100%. For the same compound, the pest or weed control at 1 µg/leaf in data set [3] (setting [10]) is 0 to 80%.

`COc1ccnc(C(=O)N[C@H]2COC[C@H](OC3CCCCC3)[C@@H](OCC(C)C)[C@H](C)OC2=O)c1O` [Compound 73] showed a melting point of 122 to 125 °C. Also, in data set [1] (setting [5]), the pest or weed control at 100 ppm was 80 to 100%. Moreover, the pest or weed control at 100 ppm in data set [1] (setting [6]) lay within 80 to 100%. In data set [2] (setting [7]), the pest or weed control at 100 ppm lay within 80 to 100%. For the same compound, in data set [2] (setting [8]), the pest or weed control at 100 ppm is 80 to 100%. Moreover, the pest or weed control at 1 µg/leaf in data set [3] (setting [9]) lay in the range of 0 to 80%. Besides, in data set [3] (setting [10]), the pest or weed control at 1 µg/leaf was 0 to 80%.

For `COc1ccnc(C(=O)N[C@H]2COC[C@H](OCc3ccccc3)[C@@H](OCc3ccccc3)COC2=O)c1OCOC(=O)C(C)C` [Compound 6], the pest or weed control at 100 ppm was in the range of 0 to 80% in data set [1] (setting [5]); 0 to 80% in data set [1] (setting [6]); 0 to 80% with Venturia inaequalis; 80 to 100% in data set [2] (setting [7]); 0 to 80% in the data set on Uncinula necator.

For the compound `COc1ccnc(C(=O)N[C@H]2COC[C@H](O)[C@@H](OCC(C)C)[C@H](C)OC2=O)c1O` [Compound 72, 3-hydroxy-N-((3S,7S,8R,9S)-7-hydroxy-8-isobutoxy-9-methyl-2-oxo-1,5-dioxonan-3-yl)-4-methoxypicolinamide], the melting point lay in the range of 121 to 124 °C. For the same compound, the pest or weed control at 100 ppm in data set [1] (setting [5]) was 0 to 80%. Also, the pest or weed control at 100 ppm in data set [1] (setting [6]) fell in the range of 0 to 80%. In data set [2] (setting [7]), the pest or weed control at 100 ppm is 0 to 80%. Further, in data set [2] (setting [8]), the pest or weed control at 100 ppm was in the range of 0 to 80%. The pest or weed control at 1 µg/leaf in data set [3] (setting [9]) fell in the range of 0 to 80%. The pest or weed control at 1 µg/leaf in data set [3] (setting [10]) lay in the range of 0 to 80%.
